Consider 2 compounds from US20130079322A1, “CRYSTALLINE OF CARBAPENEM DERIVATIVE OR ITS HYDRATE, PREPARATION METHODS AND USES THEREOF” (priority 2010, published 2013).

Converted amounts (≈) assume the structure as drawn.

The nature of series [1]: Stability assay at a high temperature of 60° C. (HPLC content and related substances). The series is classed as physicochemical. How it is done:
Condition for the assay: sampled after placing for 5 days, 10 days at a high temperature of 60° C., and the results thus obtained were compared with those obtained at day 0 by measuring related substances and contents thereof. The samples were sealed with plastic bags coated with aluminium foils during the assay. Amorphous compound A (refers to the amorphous for short hereinafter): self-prepared. Preparation method: see the preparation of amorphous compound A in the above preparative examples. The purity is 96.66%, and the batch number is 110901. The crystalline form I of compound A (refers to the crystalline form I for short hereinafter): prepared by example 1 of the Specification. The batch number is 20100315-4. Content determination is performed by external standard method using the sample at day 0 as control according to the high performance liquid chromatography in Chinese Pharmacopoeia, 2010 edition, appendix VD. Determination of related substances is performed by area normalization method according to the high performance liquid chromatography in Chinese Pharmacopoeia, 2010 edition, appendix VD. Mobile phase: A: 0.02 M diammonium phosphate (pH=5.2 adjusted by phosphoric acid):acetonitrile=95:5. • B: 0.02 M diammonium phosphate (pH=5.2 adjusted by phosphoric acid):acetonitrile=30:70. Gradient condition: see Table 1 The experimental results obtained: see Table 2

The test system of a further series is Moraxelle catarrhalis. Nature of the series: Antibacterial activity, standard agar double dilution method. The format is cell-based. The following applies: clinically isolated strains. The source says: (§1) Test strains: the following clinically isolated strains were provided by public organizations.
(§2) Gram-negative bacteria: ESBLs negative Escherichia coli, ESBLs positive Escherichia coli, Haemophilus influenzae, and Moraxelle catarrhalis.
(§3) Test compound: the crystalline form I of compound A
(§4) Experimental method: standard agar double dilution method was adopted.

Series [2] concerns Gram-positive and Gram-negative bacteria. The series can be described thus: Antibacterial activity against clinically isolated strains (overall conclusion). The format is cell-based. To be noted: against both Gram-positive and Gram-negative bacteria.
Description: as §1
Gram-positive bacteria: methicillin sensitive Staphylococcus aureus (MSSA), and penicillin sensitive Streptococcus pneumoniae;
as §2, §3, §4

[3] abbreviates: 60° C., day 5 compared with day 0.
[4] abbreviates: 60° C., day 10 compared with day 0.

Consider `C[C@@H](O)[C@H]1C(=O)N2C(C(=O)O)=C(S[C@@H]3CN[C@H](C(=O)NCc4ccc(S(N)(=O)=O)cc4)C3)[C@H](C)[C@H]12` [The crystalline form I], for which the “Stability as compared with the amorphous of compound A” value in series [1] (60° C., 5 and 10 days) is given as “more stable”. Besides, in series [1] (setting [3]), the Content decrease % came out at 3.73%, the “Related substance % increase open ring %” value was determined as 0.646% and the “Related substance % increase total %” value is 0.841%. Moreover, in series [1] (setting [4]), the Content decrease % came out at 3.95%, the “Related substance % increase open ring %” value is recorded as 0.984% and the “Related substance % increase total %” value is 1.167%. Besides, in the series with Moraxelle catarrhalis, the MIC90 (commonly an inhibitory concentration at the 90% level, which refers to growth in some studies and to a panel of isolates in others) was 8 ng/mL (≈ 0.0152 µM). The Antibacterial activity result in series [2] is listed as “excellent antibacterial activity”.

The compound `C[C@@H](O)[C@H]1C(=O)N2C(C(=O)O)=C(S[C@@H]3CN[C@H](C(=O)NCc4ccc(S(N)(=O)=O)cc4)C3)[C@H](C)[C@H]12` [The amorphous] yielded a Content % in series [1] (60° C., day 5, sample at day 0 as control) of 73.16%. In addition, in series [1] (60° C., day 5, sealed), the “Related substance % open ring %” value was 3.328% and the “Related substance % total %” value is listed as 20.675%. Also, in series [1] (setting [3]), the Content decrease % was found to be 26.84%, the “Related substance % increase open ring %” value came to 2.852% and the “Related substance % increase total %” value turned out to be 11.38%. Moreover, in series [1] (day 0), the “Related substance % open ring %” value amounted to 0.476% and the “Related substance % total %” value turned out to be 9.295%.
